Test results from PubChem BioAssay AID248 (DTP/NCI, 2004).
Toxic doses and inconclusive results are not listed.

Test system: L1210 leukemia ip in BDF1 mice, survival T/C
Assay: NCI In Vivo Anticancer Drug Screen. Data for tumor model L1210 Leukemia (intraperitoneal) in B6D2F1 (BDF1) mice
Settings: endpoint: mean survival time, higher = longer survival
Method in brief: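 Tumor cells were implanted, animals were treated, and survival was followed. The result divides the treated measurement by the vehicle-control measurement.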

[1] = dose: 100.0 mg/kg/injection, schedule: Q01DX001 (ip), vehicle: carboxymethylcellulose (CMC)
[2] = dose: 200.0 mg/kg/injection, schedule: Q01DX001 (ip), vehicle: carboxymethylcellulose (CMC)
[3] = dose: 400.0 mg/kg/injection, schedule: Q01DX001 (ip), vehicle: carboxymethylcellulose (CMC)
[4] = dose: 100.0 mg/kg/injection, schedule: Q04DX002 (ip), vehicle: Klucel (hydroxypropylcellulose) (HPC)
[5] = dose: 400.0 mg/kg/injection, schedule: Q04DX002 (ip), vehicle: Klucel (hydroxypropylcellulose) (HPC)
[6] = dose: 100.0 mg/kg/injection, schedule: Q04DX003 (ip), vehicle: Klucel (hydroxypropylcellulose) (HPC)
[7] = dose: 200.0 mg/kg/injection, schedule: Q04DX003 (ip), vehicle: Klucel (hydroxypropylcellulose) (HPC)
[8] = dose: 400.0 mg/kg/injection, schedule: Q04DX003 (ip), vehicle: Klucel (hydroxypropylcellulose) (HPC)
[9] = dose: 100.0 mg/kg/injection, schedule: Q01DX009 (ip), vehicle: saline with Tween-80
[10] = dose: 100.0 mg/kg/injection, schedule: Q04DX003 (ip), vehicle: saline with Tween-80
[11] = dose: 200.0 mg/kg/injection, schedule: Q01DX009 (ip), vehicle: saline with Tween-80
[12] = dose: 200.0 mg/kg/injection, schedule: Q04DX003 (ip), vehicle: saline with Tween-80
[13] = dose: 100.0 mg/kg/injection, schedule: Q01DX009 (ip), vehicle: Klucel (hydroxypropylcellulose) (HPC)
[14] = dose: 200.0 mg/kg/injection, schedule: Q01DX009 (ip), vehicle: Klucel (hydroxypropylcellulose) (HPC)
[15] = dose: 400.0 mg/kg/injection, schedule: Q01DX009 (ip), vehicle: Klucel (hydroxypropylcellulose) (HPC)

Structure (SMILES): CSc1nc(N)c(N=Nc2ccc(S(=O)(=O)Nc3occ(C)c3C)cc2)c(=O)[nH]1
- T/C [1]: 97 % of control
- T/C [2]: 92 % of control
- T/C [3]: 94 % of control

Structure (SMILES): O=C(Nc1cccc2ccccc12)SCc1ccccc1
- T/C [4]: 94 % of control
- T/C [5]: 90 % of control

Structure (SMILES): CCOC(=O)NC(NC(=O)OCC)c1ccco1
- T/C (dose: 100.0 mg/kg/injection, schedule: Q01DX001 (ip), vehicle: other): 98 % of control
- T/C (dose: 200.0 mg/kg/injection, schedule: Q01DX001 (ip), vehicle: other): 98 % of control
- T/C (dose: 400.0 mg/kg/injection, schedule: Q01DX001 (ip), vehicle: other): 89 % of control

Structure (SMILES): CCCC(CN(CCN(C)C)Cc1ccccc1)c1ccc(OC)cc1 (centres undefined)
- T/C (dose: 100.0 mg/kg/injection, schedule: Q01DX001 (ip), vehicle: saline): 101 % of control

Structure (SMILES): Nc1ncnc2c1ncn2C1OC(CO)C(N)C1O (centres undefined)
- T/C (dose: 1.3 mg/kg/injection, schedule: Q01DX Z (ip), vehicle: carboxymethylcellulose (CMC)): 105 % of control
- T/C (dose: 2.0 mg/kg/injection, schedule: Q01DX Z (ip), vehicle: carboxymethylcellulose (CMC)): 108 % of control
- T/C (dose: 3.0 mg/kg/injection, schedule: Q01DX Z (ip), vehicle: carboxymethylcellulose (CMC)): 113 % of control

Structure (SMILES): CCCN1C(c2ccccc2)=CN(Cc2ccccc2)C=C1c1ccccc1
- T/C [4]: 95 % of control
- T/C (dose: 200.0 mg/kg/injection, schedule: Q04DX002 (ip), vehicle: Klucel (hydroxypropylcellulose) (HPC)): 103 % of control
- T/C [5]: 106 % of control

Structure (SMILES): COS(=O)(=O)CCC[N+](C)(C)C
- T/C (dose: 50.0 mg/kg/injection, schedule: Q01DX001 (ip), vehicle: saline): 93 % of control

Structure (SMILES): c1ccc(C(c2ccccc2)(c2nccs2)n2ccnc2)cc1
- T/C [6]: 95 % of control
- T/C [7]: 98 % of control
- T/C [8]: 104 % of control

Structure (SMILES): O=C(O/N=C(\C(=O)c1ccccc1)c1ccccc1)c1ccc(Br)cc1
- T/C (dose: 50.0 mg/kg/injection, schedule: Q01DX009 (ip), vehicle: saline with Tween-80): 97 % of control
- T/C [9]: 92 % of control
- T/C [10]: 94 % of control
- T/C [11]: 89 % of control
- T/C [12]: 87 % of control

Structure (SMILES): CCCCCCCCC(=O)NCCCOC
- T/C [13]: 108 % of control
- T/C [6]: 96 % of control
- T/C [14]: 111 % of control
- T/C [7]: 91 % of control
- T/C [15]: 97 % of control
- T/C [8]: 91 % of control

Structure (SMILES): Cc1ccc(N2C(=O)C3C(C2=O)C2(Cl)C(Cl)=C(Cl)C3(Cl)C2(Cl)Cl)cc1Cl (centres undefined)
- T/C [13]: 94 % of control
- T/C [14]: 87 % of control
- T/C [15]: 92 % of control

Structure (SMILES): O=C1CCC/C1=C/c1ccccc1
- T/C [1]: 97 % of control
- T/C [6]: 93 % of control
- T/C [2]: 91 % of control
- T/C [7]: 95 % of control
- T/C [3]: 91 % of control
- T/C [8]: 88 % of control

Structure (SMILES): CN(C)C(=O)N/N=C/c1ccc(Cl)cc1
- T/C [9]: 95 % of control
- T/C [11]: 92 % of control

Structure (SMILES): O=C1CC23CCC12CCCC3=O (centres undefined)
- T/C (dose: 100.0 mg/kg/injection, schedule: Q04DX002 (ip), vehicle: saline with Tween-80): 100 % of control
- T/C (dose: 200.0 mg/kg/injection, schedule: Q04DX002 (ip), vehicle: saline with Tween-80): 93 % of control
- T/C (dose: 400.0 mg/kg/injection, schedule: Q04DX002 (ip), vehicle: saline with Tween-80): 97 % of control

Structure (SMILES): c1ccc(C2=NC(c3ccccc3)NC2c2ccccc2)cc1 (centres undefined)
- T/C (dose: 25.0 mg/kg/injection, schedule: Q01DX001 (ip), vehicle: Klucel (hydroxypropylcellulose) (HPC)): 95 % of control
- T/C (dose: 50.0 mg/kg/injection, schedule: Q01DX001 (ip), vehicle: Klucel (hydroxypropylcellulose) (HPC)): 98 % of control

Structure (SMILES): O=CCC1C=CCC1 (centres undefined)
- T/C (dose: 75.0 mg/kg/injection, schedule: Q01DX001 (ip), vehicle: carboxymethylcellulose (CMC)): 101 % of control
- T/C (dose: 150.0 mg/kg/injection, schedule: Q01DX001 (ip), vehicle: carboxymethylcellulose (CMC)): 103 % of control

Structure (SMILES): CN(c1ccccc1)S(=O)(=O)c1ccc(NC(=O)CBr)cc1
- T/C (dose: 37.5 mg/kg/injection, schedule: Q01DX001 (ip), vehicle: Klucel (hydroxypropylcellulose) (HPC)): 86 % of control
- T/C (dose: 75.0 mg/kg/injection, schedule: Q01DX001 (ip), vehicle: Klucel (hydroxypropylcellulose) (HPC)): 93 % of control

Structure (SMILES): CC(C)N=C(NC(C)C)c1ccc(NC(=O)c2ccc(C(=O)Nc3ccc(C(=NC(C)C)NC(C)C)cc3)cc2)cc1
- T/C (dose: 15.5 mg/kg/injection, schedule: Q01DX Z (ip), vehicle: methylcellulose (MC)): 103 % of control

Structure (SMILES): C=Cc1c(C)c(O)cc2c1CC[C@@H]1C(C)(C)[C@H](O)[C@H](O)C[C@@]21C
- T/C [10]: 103 % of control
- T/C [12]: 100 % of control
- T/C (dose: 400.0 mg/kg/injection, schedule: Q04DX003 (ip), vehicle: saline with Tween-80): 98 % of control

Structure (SMILES): CC1([N+](=O)[O-])COP(=O)(NCc2ccccn2)OC1 (centres undefined)
- T/C (dose: 50.0 mg/kg/injection, schedule: Q01DX001 (ip), vehicle: carboxymethylcellulose (CMC)): 107 % of control
- T/C [1]: 103 % of control
- T/C [2]: 97 % of control
- T/C [3]: 103 % of control

Structure (SMILES): NC(=S)N/N=C/c1ncccc1O
- T/C (dose: 1.8 mg/kg/injection, schedule: Q01DX Z (ip), vehicle: saline): 111 % of control
- T/C (dose: 2.7 mg/kg/injection, schedule: Q01DX Z (ip), vehicle: saline): 113 % of control
- T/C (dose: 4.1 mg/kg/injection, schedule: Q01DX Z (ip), vehicle: saline): 118 % of control
- T/C (dose: 6.25 mg/kg/injection, schedule: Q01DX015 (ip), vehicle: saline): 122 % of control
- T/C (dose: 6.25 mg/kg/injection, schedule: Q01DX Z (ip), vehicle: saline): 120 % of control
- T/C (dose: 12.5 mg/kg/injection, schedule: Q01DX Z (ip), vehicle: saline): 153 % of control
- T/C (dose: 21.0 mg/kg/injection, schedule: Q03HX032 (ip), vehicle: saline with Tween-80): 119 % of control
- T/C (dose: 25.0 mg/kg/injection, schedule: Q01DX015 (ip), vehicle: saline): 150 % of control
- T/C (dose: 25.0 mg/kg/injection, schedule: Q01DX Z (ip), vehicle: saline): 159 % of control
- T/C (dose: 47.0 mg/kg/injection, schedule: Q03HX032 (ip), vehicle: saline with Tween-80): 120 % of control
- T/C (dose: 50.0 mg/kg/injection, schedule: Q01DX Z (ip), vehicle: saline): 170 % of control
- T/C (dose: 100.0 mg/kg/injection, schedule: Q01DX015 (ip), vehicle: saline): 111 % of control
- T/C (dose: 100.0 mg/kg/injection, schedule: Q01DX Z (ip), vehicle: saline): 165 % of control
- T/C (dose: 100.0 mg/kg/injection, schedule: Q01DX Z (oral), vehicle: saline): 112 % of control
- T/C (dose: 150.0 mg/kg/injection, schedule: Q01DX Z (ip), vehicle: saline): 153 % of control
- T/C (dose: 200.0 mg/kg/injection, schedule: Q01DX015 (ip), vehicle: saline): 94 % of control
- T/C (dose: 335.0 mg/kg/injection, schedule: Q01DX Z (ip), vehicle: saline): 118 % of control
- T/C (dose: 335.0 mg/kg/injection, schedule: Q01DX Z (oral), vehicle: saline): 115 % of control
- T/C (dose: 400.0 mg/kg/injection, schedule: Q01DX015 (ip), vehicle: saline): 90 % of control

Structure (SMILES): CC(=O)c1cc(S(=O)(=O)c2cc(C(C)=O)c(O)cc2OCc2ccccc2)c(OCc2ccccc2)cc1O
- T/C (dose: 100.0 mg/kg/injection, schedule: Q04DX002 (ip), vehicle: carboxymethylcellulose (CMC)): 103 % of control
- T/C (dose: 200.0 mg/kg/injection, schedule: Q04DX002 (ip), vehicle: carboxymethylcellulose (CMC)): 92 % of control
- T/C (dose: 400.0 mg/kg/injection, schedule: Q04DX002 (ip), vehicle: carboxymethylcellulose (CMC)): 88 % of control

Structure (SMILES): Cc1ccc(NC(=O)COc2ccc([N+](=O)[O-])cc2Cl)cc1S(=O)(=O)F
- T/C (dose: 87.5 mg/kg/injection, schedule: Q04DX003 (ip), vehicle: gum acacia): 97 % of control
- T/C (dose: 175.0 mg/kg/injection, schedule: Q04DX003 (ip), vehicle: gum acacia): 100 % of control
- T/C (dose: 350.0 mg/kg/injection, schedule: Q04DX003 (ip), vehicle: gum acacia): 94 % of control

Structure (SMILES): COc1ccc2c(c1)C13CCCC(C)(C(=O)NC1)C3CC2 (centres undefined)
- T/C [1]: 93 % of control
- T/C [2]: 95 % of control
- T/C [3]: 101 % of control

Structure (SMILES): c1cncc(C2OCCO2)c1
- T/C (dose: 100.0 mg/kg/injection, schedule: Q04DX003 (ip), vehicle: saline): 98 % of control
- T/C (dose: 200.0 mg/kg/injection, schedule: Q04DX003 (ip), vehicle: saline): 92 % of control
- T/C (dose: 400.0 mg/kg/injection, schedule: Q04DX003 (ip), vehicle: saline): 105 % of control
